US9908919B2, “Cyclic apelin derivatives for the treatment of heart failure” (priority 2013, dated 2018)
Where a SMILES comes first, the peptide text is derived from it.

Experiments:
in vitro = details: rat, plasma
Experimental: (§1) The calcium flux protocol described above was followed, with the following changes. The peptides were also incubated with 5% rat plasma (Bioreclamation # [sequence]-M, Na Heparin-treated). Readings were taken at time points t0 and t24 hrs, after incubation in a 37° C. tissue culture incubator. Peptide plasma half-life in minutes was estimated by calculating the following: • 1) LN((EC50 at t0)/(EC50 at t24 hrs)), • 2) Calculate slope of value above and • 3) t112=0.693/(slope^2).

[1] = rat
Experimental: as §1

[2] = Plasma stability assay (LC-MS); type: in vitro ADME; details: male, Sprague-Dawley; Table 3; heparinized rat plasma, 37° C., LC-MS percent remaining; read-out: Plasma stability t½
Experimental: Working solution: 1 mg/mL test article is prepared in Milli-Q water
Extraction solution: Methanol:Acetonitrile:Water (1:1:1) with 0.1% Formic Acid and 400 ng/mL Glyburide.
Plasma: Male Sprague-Dawley rat plasma (with sodium heparin), purchased from Bioreclamation LLC (Liverpool, N.Y.).
Test article was prepared in one of the following biological matrices: heparinized rat plasma, heparinized rat whole blood or lung homogenate. The plasma and whole blood sample was prepared at 5000 ng/mL by adding 5 uL of 1 mg/mL Working solution to 995 uL of rat plasma or whole blood. Lung homogenate samples were prepared by diluting lung homogenate to 1 mg/ml protein concentration with phosphate buffered saline (PBS), followed by addition of 5 uL Working solution to 995 uL diluted lung homogenate. The samples were incubated at 37° C. with gentle shaking (65˜75 rpm) in a water bath incubator. At times 0 min, 5 min, 15 min, 30 min, 60 min, 120 and 240 min, 25 uL aliquots of incubation samples were transferred to 96-well plate and immediately protein precipitated using 150 uL of Extraction solution. After completion of incubation experiment, the sample plate was centrifuged at 4000 rpm at 4° C. for 10 minutes. Afterwards, a pipetting device (Tecan Temo) was used to transfer the supernatants to another plate and add 50 uL of water to all samples. The plate was vortexed prior to LC-MS analysis. […]

What does the source list for `CCCC[C@@H]1NC(=O)[C@@H]2CCCN2C(=O)CNC(=O)[C@H](CCCCN)NC(=O)[C@H](Cc2c[nH]cn2)NC(=O)[C@@H](NC(=O)[C@H](CC(C)C)NC(=O)[C@H](CCCNC(=N)N)NC(=O)[C@@H]2CCCN2C(=O)[C@H](CCCNC(=N)N)NC(=O)[C@@H]2CCC(=O)N2)CSSC[C@@H](C(=O)O)NC(=O)[C@@H]2CCCN2C1=O` [Example 8, pE-R-P-R-L-C*-H-K-G-P-Nle-P-C*-OH] (HELM PEPTIDE1{[Glp].R.P.R.L.C.H.K.G.P.[Nle].P.C}$PEPTIDE1,PEPTIDE1,6:R3-13:R3$$$V2.0)?
half-life (in vitro): > 16.7 h; Surrogate Activity based Plasma stability t½ [1]: >16.67 h; half-life at 5000 ng/mL [2]: 2.42 h
